Experimental data reported in patent US9579325B2, “Modulators of TNF-α signaling” (Genzyme Corporation, priority 2000, dated 2017).

What was measured:
[1] = tested on: Normal human dermal fibroblasts; assay: TNF-α induced apoptosis in primary human fibroblasts; assay type: cell-based; details: for OD 595 nm: 2 ng/ml TNF-α 24 hours, crystal violet
Description: (§1) Description of Table V: The results shown in Table V were obtained using the TNF-α assays performed as described in the protocols entitled “Method for TNF High Throughput Screen” and “Method for VCAM High Throughput Screen”, which are detailed below. These assays measure a cellular response to TNF-α stimulation, and the data published in the table are expressed as percentage inhibitions. Percentage inhibition is computed on a scale of 0 to 100% where 0 percent inhibition means the compound has no effect in the assay (the response is indistinguishable from TNF-α treatment alone), and 100% inhibition means that when the compound is present at the stated concentration, the response in the assay is the same as if TNF-α were not added. These two assays measure two different outcomes of TNF-α treatment, cell death and Vascular Cell Adhesion Molecule (VCAM) expression, and capture two of TNF-α's many biological effects. TNF-α induced apoptosis is a mechanism by which TNF-α production during immune/inflammatory responses can lead to direct cellular and tissue damage. TNF-α VCAM expression in endothelial cells is a response that allows leukocytes to leave the blood and enter a site of immune/inflammatory response. Both of these activities could lead to pathology in immune/inflammatory diseases. In the first column of the table, the percentage inhibition of the TNF-α driven apoptosis assay when the compounds are tested at 1 μM concentration is presented. The second column in the table lists the IC50 for the compound, a standard measure using a dilution series in the assay, and fitting a sigmoidal curve to the resulting dose-response curve. The IC50 is the concentration (derived analytically from the sigmoidal function) at which the compound would inhibit 50% of the response in the assay. The third and fourth column list the corresponding analysis for the TNF-α driven VCAM assay. In Table VI, data corresponding to the data in column 1 of Table V is shown, with human cells replacing the mouse cells used in the high throughput screen. […] As a consequence, the compounds will have use in treating more than one TNF-α mediated condition, and may be selected according to the manner in which the condition manifests. This corresponds to the use of these compounds in the treatment of human disease.
Normal human dermal fibroblasts were seeded into 96-well plates at 3×10^4 cells/well. Cells were pretreated for 2 hours with […] Actinomycin D and either Compound 44 or DMSO as a vehicle control. Cells were then exposed to 2 ng/ml TNF-α for 24 hours and stained with crystal violet/ethanol. Crystal violet was solubilized with methanol and absorbance at 595 nm was read on a microtiter plate reader.

SJL mouse strain = assay: Experimental Allergic Encephalitis (murine model of multiple sclerosis); assay type: in vivo
Description: SJL mouse strain were immunized subcutaneously with proteolipid peptide amino acid residues 139-151 in Complete Freund's Adjuvant. Pertussis toxin was injected intravenously on day 1 and 3 post-induction. Weight loss occurred at day 7 post-immunization with paralysis ensuing between days 9 and 14 post-immunization.

C57/BL mouse = assay: Sepsis model: murine LPS-d-galactosamine model; assay type: in vivo; details: 200 mg/kg intraperitoneally one hour before induction; prevention of mortality over three days
Description: Sepsis was induced in the C57/BL mouse by the intravenous injection of 20 ng of lipopolysaccharide/animal plus 20 mgs d-galactosamine/animal. Inhibition was measured as the prevention of mortality over a three day period. Compounds were administered intraperitoneally in 10% cremophore/10% ethanol/80% normal saline one hour before induction.

[2] = tested on: Vascular Cell Adhesion Molecule (VCAM) expression in primary human umbilical vein endothelial cells; assay: VCAM High Throughput Screen (TNF-α driven VCAM expression); assay type: cell-based; details: HUVEC, TNF 1.0 ng/ml
Description: as §1
• 1. Plate 4×10^4 L929 cells in 100 μl of complete EMEM in Costar 96 well plates in PM. • 2. The next day, pretreat with compound, inhibitor and control vehicle for 2 hours. • 3. After 2 hours pretreatment, add 10 μl 5 ng/ml human TNF-α and actinomycin D (40 μg/ml final concentration). • 4. Incubate overnight. • 5. In AM, remove supernatant. • 6. Wash on a plate washer (0.9% NaCl). • 7. […] Shake plates on orbital shaker and read at 595 nm on plate reader. […]

Structure (SMILES): N#Cc1cccc(C(C(=O)NCC(c2ccccc2)c2ccccc2)N(CCc2c[nH]cn2)C(=O)c2ccccc2C(=O)c2ccccc2)c1 (centres unmarked) [Compound 44]
- % Rescue ([1]; 2 μM compound): 18.4%
- OD 595 nm ([1]; 2 μM compound): 0.109
- % Rescue ([1]; 4 μM compound): 57.1%
- OD 595 nm ([1]; 4 μM compound): 0.147
- % Rescue ([1]; 8 μM compound): 109.2%
- OD 595 nm ([1]; 8 μM compound): 0.198
- % inhibition of disease (SJL mouse strain; Induction regimen, 15 mgs/kg/day/i.p. from day 1-21, P = 0.06): 44.0%
- activity disease severity score (ADSS) at last day of dosing, treated (vs. control) (SJL mouse strain; Induction regimen, 15 mgs/kg/day/i.p. from day 1-21, control 3.35): 1.9/3.35
- % Survival of treated (vs. % survival of controls) (SJL mouse strain; Induction regimen, 15 mgs/kg/day/i.p. from day 1-21, controls 50): 75 vs. 50%
- activity disease severity score (ADSS) at last day of dosing, treated (vs. control) (SJL mouse strain; Induction regimen, 75 mgs/kg/day/i.p. from day 1-21, control 3.35): 0.8/3.35
- % Survival of treated (vs. % survival of controls) (SJL mouse strain; Induction regimen, 75 mgs/kg/day/i.p. from day 1-21, controls 50): 100 vs. 50%
- % inhibition of disease (SJL mouse strain; Induction regimen, 75 mgs/kg/day/i.p. from day 1-21, p = 0.001): 75.7%
- activity disease severity score (ADSS) at last day of dosing, treated (vs. control) (SJL mouse strain; Oral therapeutic regimen, 75 mgs/kg/day/i.p. from day 7-28, control 4.4): 2.2/4.4
- % Survival of treated (vs. % survival of controls) (SJL mouse strain; Oral therapeutic regimen, 75 mgs/kg/day/i.p. from day 7-28, controls 20): 89 vs. 20%
- % inhibition of disease (SJL mouse strain; Oral therapeutic regimen, 75 mgs/kg/day/i.p. from day 7-28, p = 0.002): 50%
- activity disease severity score (ADSS) at last day of dosing, treated (vs. control) (SJL mouse strain; Therapeutic regimen, 15 mgs/kg/day/i.p. from day 7-21, control 4.6): 2.6/4.6
- % Survival of treated (vs. % survival of controls) (SJL mouse strain; Therapeutic regimen, 15 mgs/kg/day/i.p. from day 7-21, controls 11): 70 vs. 11%
- % inhibition of disease (SJL mouse strain; Therapeutic regimen, 15 mgs/kg/day/i.p. from day 7-21, p = 0.08): 43.5%
- activity disease severity score (ADSS) at last day of dosing, treated (vs. control) (SJL mouse strain; Therapeutic regimen, 75 mgs/kg/day/i.p. from day 7-21, control 4.6): 1.1/4.6
- % Survival of treated (vs. % survival of controls) (SJL mouse strain; Therapeutic regimen, 75 mgs/kg/day/i.p. from day 7-21, controls 11): 100 vs. 11%
- % inhibition of disease (SJL mouse strain; Therapeutic regimen, 75 mgs/kg/day/i.p. from day 7-21, p = 0.001): 76.1%
- Sepsis: Murine LPS-d-galactosamine model % inhibition (C57/BL mouse): 33 +/− 1 @ 200%
- IC50 [2]: 24.4 µM
